# Reference: patent US9382306B2, “Octapeptide compounds derived from somatostatin and the therapeutic use thereof” (IPSEN PHARMA S.A.S., priority 2008, dated 2016)
# Several values for one entry are separate records, joined by “and”; a condition that tells them apart may be missing. Identical values can stand only once. Bridge positions count the residues as written; N and C are the ends. Square brackets hold non-standard residues; d marks the D form. Peptide text beside a SMILES is read from it. ξ: configuration not given here. d2Nal = N[C@H](Cc1ccc2ccccc2c1)C(=O)O; Thr(3ξ) = CC(O)[C@H](N)C(=O)O
# Columns and labels:
# [1] = Self-assembly study: putting peptides in solution in water, macroscopic, ATR-FTIR, TEM and SAXS analysis; format: physicochemical; conditions: 3 to 15% by mass of peptide in water; form and diameter of the self-assembled structure, or soluble / insoluble
# From the text: The procedure used comprises three stages: putting the peptides in solution and macroscopic analysis; spectroscopic and microscopic analyses of the structures formed and by small-angle X-ray scattering (SAXS) analyses.
# The first stage of the characterization of the derivatives is the production of a range of concentrations from 3 to 15% by mass of peptide in water. Gelling of the solution indicates the presence of self-assembled structures which can be nanotubes but can also be fibres or other self-organised structures.
# The object of this stage is to verify the presence of self-assembled structures, to characterize their self-assembly and to visualize them by microscopy.
# Infrared spectroscopy makes it possible to obtain information on the method of stacking the peptides in the self-assemblies. The amide band spectrum, reflecting the absorption spectra of the carbonyl functions of the peptide backbone, gives information on the type of hydrogen bond in which these groups are involved (H bonds leading to the formation of the […], a helix or also a loop or random conformation) and consequently on the secondary and tertiary structure of the peptides in solution and self-assembled. The attenuated total reflection technique (ATR-FTIR) uses a crystal on which the solid or liquid sample is deposited. The infrared light is guided through this crystal at an angle which allows it to be reflected several times inside the crystal, which increases the sensitivity of the technique. Due to the performance of this device, it is then possible perform measurements on relatively dilute solutions. The beam penetrates a few microns into the sample deposited on the crystal, which means that only the molecules/structures which are deposited on the surface of the crystal are analyzed. Moreover, this technique is non-destructive.
# The assembled structures are then visualized by transmission electron microscopy (TEM). This very powerful technique, allowing magnifications greater than 500,000 times, is one of the few techniques capable of visualizing structures on the nanometric scale. The sample is subjected to an electron beam. The visualization of the transmitted beam is produced either by a photoluminescent screen, or by a CCD camera. The sample in the microscope being under vacuum, it is samples dried after staining with uranyl salts in order to increase contrast which are observed.
# The peptide in solution is firstly deposited on a copper grid covered with a film of carbon. After deposition of the materiel, the excess liquid is eliminated. In the same way, the solution of colorant, in our case uranyl acetate, is deposited on the grid, the excess is eliminated and the grid is dried in the open air. It can then be introduced into the microscope.
# The samples, liquids or gels, are introduced into a capillary column and subjected to a monochromatic flow of X-rays. The intensity diffused is measured as a function of the scattering angle with respect to the incident angle.
# The diffusion patterns thus obtained must be the subject of a correlation with a close theoretical model of the structures present in the sample. In the case where the peptides have self-assembled in the form of hollow nanotubes, the modelling of the experimental data with the theoretical diffusion produced by infinitely long hollow columns makes it possible to determine with precision the diameter of the columns and to estimate their wall thickness (Valery et al. in Biophysical journal, 2004, 86(4), 2484-2501 and Proc. Natl. Acad. Sci., 2003, 100(18) 10258-10262). For polydisperse, nanotubular, fibrilar, micellar or lamellar self-assemblies, it is the correlation of the spectroscopic, microscopic and XR scattering data which makes it possible to estimate a size range for the objects observed.
# [2] = Dynamic release test in PBS; format: physicochemical; conditions: PBS pH 7.4, 37° C., % of free compound
# Method: Release studies can be carried out on the octapeptide compounds according to the invention in the form of gel, solid, or in suspension. Two types of tests can be envisaged: static release tests and/or dynamic tests, both are briefly described hereafter.
# The experimental parameters are common to both types of tests. The release medium is a liquid medium which is physico-chemically well-controlled, preferably a PBS (phosphate buffer saline) buffer adjusted to pH 7.4 and maintained at 37° C. The release curve is defined as the concentration of the studied compound in the dissolution medium (expressed in % of free compound) as a function of time (minutes, hours, days). To initiate the tests, a know quantity of sample is placed in the dissolution medium at time 0 (t=0 min/h/d), the sample being optionally conditioned in a device which is suited to its initial physical state (gel, solid, suspension). Measurements of the concentration of the compound in the release medium are carried out by one or more analytical methods which are well known in the state of the art such as UV-visible spectrophotometry or the HPLC (High Performance Liquid Chromatography). The parameters of the analytical methods are adjusted as a function of the physico-chemical characteristics of the compounds. The tests can be carried out with various starting concentrations such as 75 mM and 226 mM in the examples presented hereafter.
# For the dynamic release studies, controlled stirring or a release medium flow is applied to the samples. In this mode, the samplings and/or concentration determinations are generally automated and the studies can be carried out in systems / instruments which are standardized and well known in the state of the art (cf. European Pharmacopeia systems). For example, certain studies in dynamic mode can be carried out on samples corresponding to the order of 10 mg of pure compound placed in 100 mL of PBS introduced beforehand into standardized beakers and maintained at 37° C. The stirring and samplings / measurements are controlled by a dissolution testing instrument of device type 1 or 2 described by the European Pharmacopeia.
smiles,measurement,setting,value
"CC(C)[C@@H]1NC(=O)[C@H](CCCCN)NC(=O)[C@@H](Cc2c[nH]cn2)NC(=O)[C@H](Cc2ccc(O)cc2)NC(=O)[C@@H](NC(=O)[C@H](N)Cc2ccc3ccccc3c2)CSSC[C@@H](C(=O)N[C@H](C(N)=O)C(C)O)NC1=O (stereo partly drawn) [Example 3, H-D-2-Nal^1-cyclo(Cys^2-Tyr^3-D-His^4-Lys^5-Val^6-Cys^7)-Thr^8-NH2.2 CH3COOH] (H-[d2Nal]CY[dH]KVC[Thr(3ξ)]-NH2; disulfide 2-7)",Assembly,[1],monodisperse peptide nanotubes and 9.3 nm monodisperse nanotube
same,Dynamic release after 44 h,[2]; 75 mM starting concentration,100%
same,Dynamic release after 44 h,[2]; 226 mM starting concentration,93%
"CC(C)[C@@H]1NC(=O)[C@H](CCCCN)NC(=O)[C@@H](Cc2cccc3ccccc23)NC(=O)[C@H](Cc2ccc(O)cc2)NC(=O)[C@@H](NC(=O)[C@H](N)Cc2ccc3ccccc3c2)CSSC[C@@H](C(=O)N[C@H](C(N)=O)C(C)O)NC1=O (stereo partly drawn) [Example 6, H-D-2-Nal^1-cyclo(Cys^2Tyr^3-13-(1-naphthyl)-D-Ala^4-Lys^5-Val^6-Cys^7)-Thr^8-NH2.2 CH3COOH]",Assembly,[1],monodisperse peptide nanotubes and 35 nm monodisperse nanotube
same,Dynamic release after 44 h,[2]; 75 mM starting concentration,37%
same,Dynamic release after 44 h,[2]; 226 mM starting concentration,17%
"CC(C)[C@@H]1NC(=O)[C@H](CCCCN)NC(=O)[C@@H](C)NC(=O)[C@H](Cc2ccc(O)cc2)NC(=O)[C@@H](NC(=O)[C@H](N)Cc2ccc3ccccc3c2)CSSC[C@@H](C(=O)N[C@H](C(N)=O)C(C)O)NC1=O (stereo partly drawn) [Example 4, H-D-2-Nal^1-cyclo(Cys^2Tyr^3-D-Ala^4-Lys^5-Val^6Cys^7)-Thr^8-NH2.2 CH3COOH] (H-[d2Nal]CY[dA]KVC[Thr(3ξ)]-NH2; disulfide 2-7)",Assembly,[1],self-assembled fibres
same,Dynamic release after 44 h,[2]; 75 mM starting concentration,94%
same,Dynamic release after 44 h,[2]; 226 mM starting concentration,75%
